From patent US20060194837A1, “Tetrahydroisoquinoline compounds” (priority 2004, published 2006) come the findings set out here.

SMILES strings stand for the structures. Like-named read-outs stand apart in the source and are kept apart here.

Test [1] concerns the target T1, human H3 receptor (Homo sapiens, UniProt Q9Y5N1).
T1 construct: expressed in transfected cells
Kind of test: H3 receptor binding (N-[3H]-α-methylhistamine displacement). Particulars: membranes of SK-N-MC cells expressing cloned human H3 receptor, 0.8 nM N-[3H]-α-methylhistamine, 60 min at 25° C.

In the next test the target is T2, Rat SERT (Rattus norvegicus, UniProt P31652).
T2 construct: A rat brain without cerebellum (Zivic Laboratories, Inc.—Pittsburgh, Pa.) was homogenized; tissue Zivic Laboratories, Inc; host or cells: rat brain without cerebellum, membranes
Kind of test: Rat brain SERT binding ([3H]-citalopram displacement). To be noted: rat brain membranes without cerebellum, 0.6 nM [3H]-citalopram, 60 min at 25° C.; read-out: Rat SERT Ki. As for the experimental part: The supernatant was removed and re-centrifuged at 15,000 rpm for 30 min. […] Membranes were incubated with 0.6 nM [^3H]-Citalopram plus/minus test compounds for 60 min at 25° C. and harvested by rapid filtration over GF/C glass fiber filters (pretreated with 0.3% polyethylenimine) followed by four washes with ice-cold buffer.

A further test concerns the target T3, human SERT (Homo sapiens, UniProt P31645).
T3 construct: expressed in transfected cells; host or cells: HEK293 membranes
Kind of test: Human SERT binding (3H-citalopram displacement). Particulars: HEK293 membranes expressing human SERT, rt 1 h. As for the experimental part:
Homogenized HEK293 (Human Embryonic Kidney) membranes expressing the human SERT were incubated with ^3H-citalopram (SERT) at rt for 1 h in 50 mM Tris, 120 mM NaCl, 5 mM KCl (pH 7.4). […] The membranes were washed and the radioactivity was counted as above.

Test [2] addresses T1, human H3 receptor. Put plainly: Cyclic AMP accumulation (β-galactosidase reporter, Schild analysis). The format is cell-based. To be noted: histamine agonist, forskolin 5 μM, Schild regression of pEC50 values. The procedure: Sublines of SK-N-MC cells were created that expressed a reporter construct and the human H3 receptor. The reporter gene (β-galactosidase) is under the control of multiple cyclic AMP responsive elements. In 96-well plates, histamine was added directly to the cell media followed 5 min later by an addition of forskolin (5 μM final concentration). When appropriate, antagonists were added 10 min prior to agonist addition. After a 6-h incubation at 37° C., the media was aspirated and the cells washed with 200 μL of phosphate-buffered saline followed by a second aspiration. Cells were lysed with 25 μL 0.1× assay buffer (10 mM Na-phosphate, pH 8, 0.2 mM MgSO4, 0.01 mM MnCl2) and incubated at rt for 10 min. […] Color was developed using 25 μL of 1 mg/mL substrate solution (chlorophenolred β-D galactopyranoside; Roche Molecular Biochemicals, Indianapolis, In.).

The mark [3] stands for this setting: SK-N-MC cells expressing human H3 receptor and CRE-β-galactosidase reporter, read-out: pA2 (converted).

T3 sequence (P31645 whole entry): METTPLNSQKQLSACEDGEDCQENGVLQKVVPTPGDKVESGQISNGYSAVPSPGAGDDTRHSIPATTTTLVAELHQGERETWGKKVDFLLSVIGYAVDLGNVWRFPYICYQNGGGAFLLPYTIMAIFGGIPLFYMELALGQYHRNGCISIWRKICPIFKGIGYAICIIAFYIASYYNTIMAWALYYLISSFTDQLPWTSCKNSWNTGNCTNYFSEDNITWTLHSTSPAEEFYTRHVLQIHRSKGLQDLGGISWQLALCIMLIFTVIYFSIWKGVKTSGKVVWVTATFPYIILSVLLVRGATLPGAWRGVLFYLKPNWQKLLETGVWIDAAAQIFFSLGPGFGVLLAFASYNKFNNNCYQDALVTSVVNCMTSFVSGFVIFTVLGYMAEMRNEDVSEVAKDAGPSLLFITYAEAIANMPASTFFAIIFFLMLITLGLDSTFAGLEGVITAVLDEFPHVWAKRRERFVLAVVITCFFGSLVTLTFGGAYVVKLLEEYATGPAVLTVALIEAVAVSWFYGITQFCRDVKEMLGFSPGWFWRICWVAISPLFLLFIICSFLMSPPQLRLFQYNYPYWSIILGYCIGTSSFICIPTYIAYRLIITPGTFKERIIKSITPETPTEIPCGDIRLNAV
T2 sequence (P31652 whole entry): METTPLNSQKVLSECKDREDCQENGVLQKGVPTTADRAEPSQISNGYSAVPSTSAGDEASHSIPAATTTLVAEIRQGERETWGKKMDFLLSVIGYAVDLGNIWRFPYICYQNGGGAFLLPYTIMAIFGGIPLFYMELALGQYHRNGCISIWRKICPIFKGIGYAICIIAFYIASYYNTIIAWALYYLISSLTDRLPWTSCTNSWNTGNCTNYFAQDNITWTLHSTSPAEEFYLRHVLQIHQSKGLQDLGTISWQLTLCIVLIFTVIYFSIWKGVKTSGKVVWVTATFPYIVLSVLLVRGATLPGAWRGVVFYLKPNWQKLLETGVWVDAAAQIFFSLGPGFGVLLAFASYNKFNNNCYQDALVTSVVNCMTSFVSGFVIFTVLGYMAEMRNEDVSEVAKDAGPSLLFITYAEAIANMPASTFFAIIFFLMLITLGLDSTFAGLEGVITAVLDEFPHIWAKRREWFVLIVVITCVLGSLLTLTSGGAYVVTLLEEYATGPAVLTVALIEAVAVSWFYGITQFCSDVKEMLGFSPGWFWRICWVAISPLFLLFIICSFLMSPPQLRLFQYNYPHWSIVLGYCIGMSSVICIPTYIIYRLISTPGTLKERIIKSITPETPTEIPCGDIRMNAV
T1 sequence (Q9Y5N1 whole entry): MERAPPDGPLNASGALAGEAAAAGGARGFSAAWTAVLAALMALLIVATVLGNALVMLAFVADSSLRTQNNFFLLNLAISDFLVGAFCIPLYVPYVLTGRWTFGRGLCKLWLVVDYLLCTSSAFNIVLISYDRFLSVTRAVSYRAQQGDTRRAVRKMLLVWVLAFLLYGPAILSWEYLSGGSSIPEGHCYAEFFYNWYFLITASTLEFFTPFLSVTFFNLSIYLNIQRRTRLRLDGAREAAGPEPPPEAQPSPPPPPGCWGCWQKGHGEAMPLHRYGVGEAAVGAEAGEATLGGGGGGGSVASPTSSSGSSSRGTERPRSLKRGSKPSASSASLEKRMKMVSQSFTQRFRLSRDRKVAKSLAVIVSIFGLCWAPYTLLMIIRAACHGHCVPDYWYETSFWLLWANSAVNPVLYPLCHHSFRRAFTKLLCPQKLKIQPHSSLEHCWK

Take `COc1ccc(C2CN(CCF)Cc3cc(OCCCN4CCCCC4)ccc32)cc1` (centres unmarked) [Example 72, 2-(2-Fluoro-ethyl)-4-(4-methoxy-phenyl)-7-(3-piperidin-1-yl-propoxy)-1,2,3,4-tetrahydro-isoquinoline]: the figures for the Ki on human H3 receptor [1], at Rat SERT and on human SERT were 1 nM, 15 nM and 29 nM, respectively. On human H3 receptor [2] (pA2, SK-N-MC cells expressing human H3 receptor and CRE-β-galactosidase reporter), the Kb is 0.794 nM.

As to `COc1ccc(C2CN(C)Cc3cc(OCCCN4[C@H](C)CC[C@H]4C)ccc32)cc1` (stereo partly drawn) [Example 11, 7-[3-((2R,5R)-trans-Dimethyl-pyrrolidin-1-yl)-propoxy]-4-(4-methoxy-phenyl)-2-methyl-1,2,3,4-tetrahydro-isoquinoline], the Ki (in general, the dissociation constant of the complex between target and ligand, obtained from inhibition or displacement) at human H3 receptor [1] was 0.6 nM; on Rat SERT, 2 nM; on human SERT, 5 nM. Also, at human H3 receptor [2] (setting [3]), the Kb was 0.398 nM.

For the compound `COc1cccc(C2CN(C)Cc3cc(OCCCN4CCC(F)CC4)ccc32)c1` (single isomer, unassigned) [Example 45B, 7-[3-(4-Fluoro-piperidin-1-yl)-propoxy]-4-(3-methoxyphenyl)-2-methyl-1,2,3,4-tetrahydro-isoquinoline], the figures for the Ki at human H3 receptor [1], on Rat SERT and on human SERT were 3 nM, 5 nM and 6 nM, respectively. Also, the Kb at human H3 receptor [2] (setting [3]) was 0.794 nM.

Turning to `CN1Cc2cc(OCCCN3CCOCC3)ccc2C(c2ccc(OC(F)F)cc2)C1` (centres unmarked) [Example 214, 4-(4-Difluoromethoxy-phenyl)-2-methyl-7-(3-morpholin-4-yl-propoxy)-1,2,3,4-tetrahydro-isoquinoline], the Ki on human H3 receptor [1] was 17 nM; on Rat SERT, 3 nM; on human SERT it was 12 nM. Besides, the Kb on human H3 receptor [2] (setting [3]) was 6.31 nM.

`COc1ccc(C2CN(CCO)Cc3cc(OCCCN4CCCCC4)ccc32)cc1` (centres unmarked) [Example 71, 2-[4-(4-Methoxy-phenyl)-7-(3-piperidin-1-yl-propoxy)-3,4-dihydro-1H-isoquinolin-2-yl]-ethanol]: the values for the inhibitory constant (Ki) at human H3 receptor [1], on Rat SERT and at human SERT were 1 nM, 16 nM and 31 nM, respectively. Also, the Kb at human H3 receptor [2] (setting [3]) is 0.251 nM.
